The results in this text go back to patent publication US7094809B2, “Method of treating subject infected with Neisseria gonorrhea” (Northeastern Ohio Universities College of Medicine, priority 2000, dated 2006).

In data set [1] the test system is HSV-1. Description: HSV-1 plaque assay, infected Vero cells, moi 1 (Example 3). In kind it is cell-based. On the procedure: Cultures of African green monkey kidney cells (Vero) cells, obtained from the American Type Culture Collection, Rockville, Md. were grown to confluence in Medium 199 supplemented with 5% fetal bovine serum, 0.075% NaHCO3, and 50 μg/ml gentamycin sulfate in 25 cm^2 tissue culture flasks. Cells were infected with HSV-1 at a multiplicity of infection (moi) of one and incubated at room temperature for one hour to allow for virus attachment to and penetration of the cell. Under these conditions, approximately half of the cells are infected with virus. Thereafter, the cultures were rinsed three time with media and incubated in medium containing 50 μM or 75 μM 4, 4′-dihydroxytolan prepared in 0.2% dimethyl-sulfoxide (DMSO). Controls were treated identically, but were incubated without the dihyroxylated tolan. For purposes of comparison, HSV cell were also inoculated in the presence of 52.5 μM 4,4′-dihydroxystilbene. Due to the higher cell toxicity of the stilbene, cells were not incubated in the presence of 75 μM dihydroxystilbene.
Upon addition of the medium to the cultures and at 24 hours time periods thereafter, i.e., 0 hours, 24 hours, 48 hours, and 72 hours after addition of the drug, cells and medium were frozen at −70° C. Samples were then thawed, sonicated and titrated on Vero cells to determine the number of plaque forming units (pfu's) of virus produced by each culture.

Data set [2] concerns HSV-1. Description: HSV-1 plaque assay, time of drug addition, Vero cells, moi 10 (Example 4). In kind it is cell-based. On the procedure:
Vero cell cultures were infected with HSV-1 as described above in Example 3 except that the cells were infected with virus at an moi of 10. Under these conditions nearly all of the cells are infected with virus during the initial one hour incubation period. Following removal of unattached virus, the virally-infected cultures were incubated in control medium lacking a hydroxylated tolan or medium to which 105 μM 4,4′-dihydroxytolan had been added at 1, 3, 6, or 9 hours after removal of the unattached virus. At 24 hours after infection, the number of pfu's present in the cells and medium of untreated and hydroxylated tolan-treated cultures was determined.

For data set [3], the system named is HSV-1. Description: Direct inactivation of HSV-1 inoculum, residual pfu by plaque assay. It is filed as cell-based. The following applies: 105 μM, room temperature, 1 to 60 minutes, data not shown. The protocol:
To determine whether hydroxylated tolans block formation of infectious herpes virus particles by directly inactivating the virus, a standard inoculum of HSV-1 was mixed with 105 μM 4,4′-dihydroxytolan in medium, with 0.2% DMSO in medium, or with media alone and placed at room temperature. The number of residual pfu's present at 1, 10, 30, and 60 minutes after addition of each respective solution to the virus was determined by plaque assay.

Data set [4] has as its system HSV-1. Briefly: Reversibility of inhibition of HSV replication, Vero cells, moi 1 (Example 5). The following applies: 105 μM. It is filed as cell-based. On the procedure:
Vero cells were grown to confluence and infected with HSV-1 at an moi of 1 and then incubated in media lacking a hydroxylated tolan (control cultures) or in media containing 105 μM 4,4′-dihydroxytolan. One set of infected cells was maintained in the dihydroxylatedtolan for a period of 72 hours. In another set of infected cells the dihydroxytolan-containing media was replaced with media lacking a hydroxylated tolan at 24 hours. In another set of cells the tolan-containing media was replaced with media lacking the hydroxylated tolan at 48 hours after infection. The number of infectious HSV particles produced by each set of infected cells was determined by plaque assay.

Data set [5] has as its system Vero cells. Description: Cell viability studies, uninfected Vero cells. In kind it is cell-based, African green monkey. The settings on record: 105 μM, 24 hours. On the procedure: Cell viability studies confirmed that treatment of uninfected Vero cells with 105 μM 4,4′-dihydroxytolan for 24 hours was not toxic.
A further data set deals with ICP-4. Description: Western blot of ICP-4 in HSV-1 infected Vero cells. It is filed as cell-based. The settings on record: 105 μM, 24 hours. On the procedure: (§1) ICP-4 and ICP-27 are immediate-early regulatory proteins of HSV-1 that are required for efficient replication of this virus. To determine whether ICP-4 or ICP-27 production is altered by treatment with a hydroxylated tolan, separate cultures of Vero cells were infected with HSV-1 at an moi of 1 and incubated in control medium or medium containing 105 μM 4,4′-dihydroxytolan for 24 hours. Infected cells were scraped from the flask, collected by centrifugation, and resuspended in cold tris-buffered saline, pelleted by centrifugation, and the cell pellet frozen at −70° C. Proteins were extracted from the thawed pellets, separated by 6–15% SDS-PAGE, and assayed on a Western blot by reacting with mouse monoclonal antibody to ICP-4 or ICP-27 from Goodwin Institute for Cancer Research Inc., FL.
(In general: Immunoblotting shows a protein as a band on a membrane.)

The next data set concerns ICP-27. Briefly: Western blot of ICP-27 in HSV-1 infected Vero cells. In kind it is cell-based. The settings on record: 105 μM, 24 hours. On the procedure: as §1
Data set [6] relates to Vero cells. Briefly: MTT colorimetric cell toxicity assay. It is filed as cell-based, African green monkey. On the procedure: Cell toxicity of the tolans 4,4′-dihydroxytolan (“Tolan-5”), 3,4′,5-trihydroxytolan (“Tolan-10”) and 4-hydroxy-4′-trifluoromethyltolan (“Tolan-11”) was determined using an MTT assay. In this assay, cells are exposed to MTT, 3-(4,5-dimethylthiazol-2-yl)-2,5-diphenyltetrazolium bromide, which is taken into the cells and reduced by mitochondrial dehydrogenase to a purple formazan, a large molecule which is unable to pass through intact cell membranes, and therefore accumulates in healthy cells. The ability of cells to reduce MTT is an indication of mitochondrial integrity and activity, which may be interpreted as a measure of viability. Solubilization of the cells results in the liberation of the product which can readily be detected spectrophotometrically.
Various concentrations of Tolan-5, Tolan-10 and Tolan-11 were added to 96 well tissue culture plates that had been seeded with Vero cells. The plates were then incubated at 37° C. in 5% CO2/95% air for 24, 48 and 72 hours. At the end of each time point, 50 μl of MTT (1 mg/ml) was added to the tissue culture plates which were then incubated for an additional four hours. At the end of that time, dimethyl sulfoxide (DMSO) was added to dissolve the cells and formazan, and the plates were read spectrophotometrically at 540 nm. […] Presented in Table I below are the toxicity results for Tolan-5, Tolan-10, and Tolan-11 measured at 24, 48 and 72 hours of treatment.

Data set [7] has as its system HSV-1. Description: Inhibition of HSV-1 replication in vitro, plaque assay (Example 9). In kind it is cell-based. On the procedure:
Tissue culture cells were infected with HSV-1 and incubated in solutions containing Tolan-5, Tolan-10 and Tolan-11. The concentrations used ranged from one-half to three-quarters of the calculated CD50 for the respective tolan at 48 hours of treatment. Specifically, Vero cells were infected with HSV-1 at a multiplicity of infection of one for one hour. At the end of that time, the cultures were rinsed with media and fresh media containing various concentration of the respective tolan were added. Infected control cultures were incubated in media lacking hydroxylated tolan. At 1, 24, 48, and 72 hours after infection, samples were frozen at −70° C. until assayed for new virus production. Virus production was quantified by the plaque assay for each time point of infection. The results, which are expressed as plaque forming units per milliliter (pfu/ml).

For the compound `Oc1ccc(C#Cc2ccc(O)cc2)cc1` [Tolan-5, 4,4′-dihydroxytolan], the “reduction of new virus production” value with HSV-1 [1] (50 μM) was 95%. In addition, in the data set on HSV-1 [1] (75 μM continuously, by 72 hours), the “infectious HSV particles in cultures” value is listed as “virtually undetectable”. For the same compound, the inhibition (usually the drop in the measured response relative to a control, in per cent) at 75 µM in the data set with HSV-1 [1] (Human alphaherpesvirus 1, 75 μM, 24 hours, Vero cells, moi 1, read-out: inhibition of formation of infectious virus particles) is greater than 99%. For the same compound, the “inhibition of production of virus” value in the data set with HSV-1 [2] (105 μM added 6 hours after infection, pfu at 24 hours, moi 10) is given as “approximately 90%”. In addition, the “reduction of production of virus” value in the data set with HSV-1 [2] (105 μM added one hour after infection, pfu at 24 hours, moi 10) is on record as “more than 99%”. Also, the inhibition at 105 µM with HSV-1 [2] (Human alphaherpesvirus 1, Vero, 105 μM added 3 hours after infection, pfu at 24 hours, moi 10, read-out: inhibition of production of virus) is roughly 90%. Further, the “formation of infectious virus particles” value in the data set on HSV-1 [2] (added 9 hours after infection) is “not inhibited”. The “direct inactivation of HSV” value in the data set with HSV-1 [3] is recorded as “did not directly inactivate HSV”. Also, the “reversibility of inhibitory effect on HSV replication” value in the data set on HSV-1 [4] (drug removed at 24 or 48 hours) is “reversible”. Further, in the data set on HSV-1 [4] (prolonged period of time, mammalian cells), the “cell killing on prolonged exposure” value is “does not kill the cells”. For the same compound, in the data set with Vero cells [5], the “toxicity to uninfected Vero cells” value is given as “not toxic”. In addition, the “synthesis of ICP-4” value in the data set on ICP-4 is “significantly reduced”. Besides, in the data set on ICP-27, the “synthesis of ICP-27” value is given as “significantly reduced”. In addition, the results for the CD50 in the data set on Vero cells [6] (48 hours) and with Vero cells [6] (72 hours) were 106 µM and 84.0 µM, respectively. Moreover, the “inhibition of virus, comparison of concentrations” value in the data set on HSV-1 [7] (75 μm versus 50 μm) is recorded as “more inhibitory to the virus at 75 μm that at 50 μm”. Further, the HSV-1 production entry with HSV-1 [7] (Vero cells, moi 1, up to 72 hours) was “inhibited HSV-1 production”.
